# Measurements as given in the supplement of paper PMC10307832.
# Experiments:
# Experiment in all cases: relative viability (nuclei count vs DMSO), 5 days (fraction); higher = more cells survive
# Zosuquidar + Luminespib = compound: O[C@@H](COc1cccc2ncccc12)CN1CCN([C@@H]2c3ccccc3[C@@H]3[C@H](c4ccccc42)C3(F)F)CC1 [Zosuquidar] + CCNC(=O)c1noc(-c2cc(C(C)C)c(O)cc2O)c1-c1ccc(CN2CCOCC2)cc1 [Luminespib] (partner 0.01 µM)
# How it was run: (§1)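 After 5 days of treatment, lung cancer cells in 1536-well plates were fixed and stained in a single step (final 0.05% Triton X-100, 1% formaldehyde, 1 ug/ml Hoechst) and their nuclei counted on 4× images. Treatment had been applied by pin tool the day after seeding as one drug alone or as a fixed anchor-drug dose with five library-drug doses (not always all listed) in √10 steps. Relative viability is the nuclei count of treated wells divided by that of vehicle wells, and values are medians of duplicate plates.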
# Zosuquidar + Pemetrexed = compound: O[C@@H](COc1cccc2ncccc12)CN1CCN([C@@H]2c3ccccc3[C@@H]3[C@H](c4ccccc42)C3(F)F)CC1 [Zosuquidar] + Nc1nc2[nH]cc(CCc3ccc(C(=O)N[C@@H](CCC(=O)O)C(=O)O)cc3)c2c(=O)[nH]1 [Pemetrexed] (partner 0.2 µM)
# How it was run: as §1
# Zosuquidar + Crizotinib = compound: O[C@@H](COc1cccc2ncccc12)CN1CCN([C@@H]2c3ccccc3[C@@H]3[C@H](c4ccccc42)C3(F)F)CC1 [Zosuquidar] + C[C@@H](Oc1cc(-c2cnn(C3CCNCC3)c2)cnc1N)c1c(Cl)ccc(F)c1Cl [Crizotinib] (partner 1 µM)
# How it was run: as §1
# [1] = compound: COc1cc2nccc(Oc3ccc(NC(=O)C4(C(=O)Nc5ccc(F)cc5)CC4)cc3)c2cc1OC [Cabozantinib] + C[C@@H](Oc1cc(-c2cnn(C3CCNCC3)c2)cnc1N)c1c(Cl)ccc(F)c1Cl [Crizotinib] (partner 1 µM)
# How it was run: as §1
Cell Line,relative viability (Zosuquidar + Luminespib; first compound 0.01 µM),relative viability (Zosuquidar + Luminespib; first compound 0.03162 µM),relative viability (Zosuquidar + Luminespib; first compound 0.1 µM),relative viability (Zosuquidar + Luminespib; first compound 0.3162 µM),relative viability (Zosuquidar + Luminespib; first compound 1 µM),relative viability (Zosuquidar + Pemetrexed; first compound 0.01 µM),relative viability (Zosuquidar + Pemetrexed; first compound 0.1 µM),relative viability (Zosuquidar + Pemetrexed; first compound 0.3162 µM),relative viability (Zosuquidar + Pemetrexed; first compound 1 µM),relative viability (Zosuquidar + Crizotinib; first compound 0.01 µM),relative viability (Zosuquidar + Crizotinib; first compound 0.03162 µM),relative viability (Zosuquidar + Crizotinib; first compound 0.1 µM),relative viability (Zosuquidar + Crizotinib; first compound 0.3162 µM),relative viability (Zosuquidar + Crizotinib; first compound 1 µM),relative viability ([1]; first compound 0.06325 µM),relative viability ([1]; first compound 0.2 µM),relative viability ([1]; first compound 0.6325 µM),relative viability ([1]; first compound 2 µM),relative viability (Zosuquidar + Pemetrexed; first compound 0.03162 µM),relative viability ([1]; first compound 0.02 µM)
NCI-H23,0.206,0.223,0.223,0.222,0.266,0.601,0.612,0.843,0.657,0.467,0.495,0.512,0.534,0.478,0.634,0.503,0.473,0.413,–,–
NCI-H322M,0.754,0.886,0.664,0.862,0.727,0.623,0.548,0.582,0.575,0.896,0.929,0.861,0.739,0.91,1.04,–,0.945,0.861,0.537,1.02
NCI-H358,0.334,0.356,0.441,0.347,0.413,0.189,0.173,0.167,0.154,0.602,0.497,0.807,0.497,0.532,0.708,0.576,0.401,0.382,0.173,0.717
NCI-H441,0.355,0.244,0.403,0.286,0.326,0.29,0.249,0.23,0.268,0.681,0.788,0.689,–,0.742,0.799,0.857,0.717,0.668,0.286,0.684
NCI-H460,0.0346,0.0269,0.0352,0.0358,0.0277,0.0576,0.0685,0.0617,0.0615,0.813,0.906,1.01,0.916,1.02,0.895,0.902,0.926,0.929,0.0545,1.01
NCI-H520,0.226,0.192,–,0.193,0.206,0.742,0.788,0.85,0.899,0.727,0.68,0.737,0.834,0.828,0.843,0.758,0.644,0.596,0.723,1.03
NCI-H596,1.1,–,0.804,0.983,0.931,0.456,0.51,0.507,0.544,1.03,0.898,1.01,1.06,1.02,1.06,0.87,1.01,0.888,0.482,1.06
NCI-H647,0.116,0.165,0.181,0.142,0.177,0.188,0.178,0.168,0.139,1.03,1.09,1.03,1.14,1.1,1.58,1.05,1.07,0.877,0.177,1.23
NCI-H650,0.96,0.764,0.809,0.777,0.904,0.764,0.834,1.18,0.921,0.641,0.762,–,0.731,0.721,0.692,0.836,0.792,0.757,0.757,0.857
NCI-H661,0.911,0.875,0.875,0.938,0.891,0.914,0.846,0.928,0.851,0.993,1.07,–,1.05,0.906,0.991,1.13,0.918,1.03,0.902,–
NCI-H838,0.329,0.328,0.28,0.304,0.284,0.239,0.254,0.251,0.268,0.802,0.789,0.849,0.901,0.779,0.925,0.834,0.787,0.799,0.236,1.03
NCI-H1355,0.741,0.752,0.644,0.822,0.824,1.01,0.916,1.11,1.03,1.05,0.997,0.987,1.15,1.05,1.16,1.09,1.05,1.15,1,1.11
NCI-H1437,1.1,1.14,1.05,1.13,1.11,0.331,0.303,0.296,0.337,0.868,0.994,0.92,0.911,0.897,1,0.955,0.976,0.792,0.311,1.02
NCI-H1563,0.471,0.536,0.523,0.538,0.532,0.623,0.679,0.729,0.743,0.734,0.904,0.84,0.828,0.838,1.03,0.904,0.77,0.802,0.786,0.948
NCI-H1650,0.178,0.183,0.204,0.203,0.202,0.378,0.327,0.479,0.401,0.888,1.02,0.974,1.01,1.02,1.23,0.911,1.04,0.911,0.373,1.02
NCI-H1651,0.897,0.973,0.655,0.862,0.792,0.55,0.425,0.533,0.644,0.849,0.965,0.854,0.869,0.87,0.866,0.885,0.846,0.842,0.653,0.821

Cell Line,relative viability (Zosuquidar + Luminespib; first compound 0.01 µM),relative viability (Zosuquidar + Luminespib; first compound 0.03162 µM),relative viability (Zosuquidar + Luminespib; first compound 0.1 µM),relative viability (Zosuquidar + Luminespib; first compound 0.3162 µM),relative viability (Zosuquidar + Luminespib; first compound 1 µM),relative viability (Zosuquidar + Pemetrexed; first compound 0.01 µM),relative viability (Zosuquidar + Pemetrexed; first compound 0.1 µM),relative viability (Zosuquidar + Pemetrexed; first compound 0.3162 µM),relative viability (Zosuquidar + Pemetrexed; first compound 1 µM),relative viability (Zosuquidar + Crizotinib; first compound 0.01 µM),relative viability (Zosuquidar + Crizotinib; first compound 0.03162 µM),relative viability (Zosuquidar + Crizotinib; first compound 0.1 µM),relative viability (Zosuquidar + Crizotinib; first compound 0.3162 µM),relative viability (Zosuquidar + Crizotinib; first compound 1 µM),relative viability ([1]; first compound 0.06325 µM),relative viability ([1]; first compound 0.2 µM),relative viability ([1]; first compound 0.6325 µM),relative viability ([1]; first compound 2 µM),relative viability (Zosuquidar + Pemetrexed; first compound 0.03162 µM),relative viability ([1]; first compound 0.02 µM)
NCI-H1666,0.966,0.978,0.945,1.01,1.08,0.807,0.741,0.92,0.909,1.02,0.975,1.18,0.986,1.08,1,1.05,1.1,1.08,0.855,0.965
NCI-H1734,0.222,0.251,0.182,0.187,0.184,0.366,0.395,0.422,0.447,0.64,0.566,0.662,0.72,0.705,0.761,0.687,0.73,0.635,0.382,0.809
NCI-H1755,0.335,0.729,0.564,0.358,0.471,0.448,0.426,0.426,0.452,0.859,0.924,0.839,0.881,0.876,0.964,0.942,0.797,0.781,0.428,0.972
NCI-H1792,0.334,0.234,0.38,0.673,0.293,0.746,0.474,1.04,0.933,0.912,0.771,0.776,0.954,0.977,1.1,0.999,0.962,1.03,0.705,0.841
NCI-H1915,0.742,0.839,0.792,0.753,0.811,0.518,0.413,0.489,0.474,0.868,0.938,0.887,0.882,0.909,0.904,0.888,0.896,0.996,0.527,0.923
NCI-H1944,0.76,0.655,0.722,0.785,0.651,0.583,0.604,0.678,0.665,1.03,1.09,1.03,1.04,1.12,1.26,1.1,1.07,1.21,0.585,–
NCI-H1975,0.264,0.174,0.217,0.213,0.182,0.279,0.293,0.272,0.29,0.923,0.941,1.01,0.924,1.09,1.05,0.948,1.09,0.83,0.299,1.09
NCI-H1993,0.874,0.78,1.55,0.778,0.75,0.578,–,0.642,0.636,0.864,0.859,0.789,1.01,0.881,1.04,0.682,0.856,0.884,0.624,0.798
NCI-H2009,1,1.07,0.986,1.02,0.989,1.04,1.01,0.902,1.06,1.02,1.01,1.05,1.06,1.01,1.09,1.15,1.09,1.04,1.04,1.11
NCI-H2023,0.796,0.619,0.904,0.776,0.759,0.224,0.212,0.302,0.297,0.593,0.679,0.743,0.741,0.606,0.755,0.714,0.601,0.724,0.233,0.746
NCI-H2085,0.425,0.526,0.531,0.44,0.471,0.953,–,0.956,0.904,0.822,0.823,0.899,0.792,0.874,0.921,0.992,0.898,0.799,0.697,0.949
NCI-H2087,0.155,–,0.184,0.195,0.16,0.597,0.62,0.643,0.637,0.839,1.05,0.817,0.915,0.836,0.831,0.75,0.871,0.99,0.667,0.95
NCI-H2126,0.93,0.909,–,0.935,0.952,0.677,0.51,0.697,0.737,0.92,0.987,0.911,1.04,1.07,1.04,1.01,1.04,1.02,0.625,1.03
NCI-H2170,0.663,0.716,0.599,0.92,0.582,0.283,0.263,0.269,0.255,1.18,1.22,1.21,1.19,1.17,1.4,1.27,1.15,1.19,0.263,1.33
NCI-H2228,0.124,0.163,0.185,0.171,0.206,0.359,0.315,0.324,0.361,0.524,0.598,0.44,0.338,0.607,0.496,0.505,0.403,0.315,0.302,0.581
NCI-H2347,0.539,0.51,0.256,0.34,0.602,0.425,0.413,0.432,0.483,0.786,0.75,0.575,0.794,0.717,0.771,0.46,0.786,0.584,0.34,0.761
